From paper PMC9506414, “Novel 2,6,9-Trisubstituted Purines as Potent CDK Inhibitors Alleviating Trastuzumab-Resistance of HER2-Positive Breast Cancers” (Pharmaceuticals, 2022)

Experiments:
Experiment in all cases: Kinome-wide inhibition profiling
Format in all cases: biochemical
[1] = target: T1, EPHB1 (Homo sapiens, UniProt P54762)
T1 construct: purchased Reaction Biology Corp
Procedure: (§1) In vitro CDK12/cyclinK assays for all compounds and in vitro kinome-wide inhibition profiling of 30d at 10 μM were performed by a CRO company (Reaction Biology Corp., San Diego, CA, USA).

[2] = target: T2, DYRK4 (Homo sapiens, UniProt Q9NR20)
T2 construct: purchased Reaction Biology Corp
Procedure: as §1

[3] = target: T3, TTBK1 (Homo sapiens, UniProt Q5TCY1)
T3 construct: purchased Reaction Biology Corp
Procedure: as §1

[4] = target: T4, ACVR1 (Homo sapiens, UniProt Q04771)
T4 construct: purchased Reaction Biology Corp
Procedure: as §1

[5] = target: T5, SRPK1 (Homo sapiens, UniProt Q96SB4)
T5 construct: purchased Reaction Biology Corp
Procedure: as §1

[6] = target: T6, TNIK (Homo sapiens, UniProt Q9UKE5)
T6 construct: purchased Reaction Biology Corp
Procedure: as §1

[7] = target: T7, TAOK3 (Homo sapiens, UniProt Q9H2K8)
T7 construct: purchased Reaction Biology Corp
Procedure: as §1

[8] = target: T8, LRRK2 (Homo sapiens, UniProt Q5S007)
T8 construct: purchased Reaction Biology Corp
Procedure: as §1

[9] = target: T9, DYRK2 (Homo sapiens, UniProt Q92630)
T9 construct: purchased Reaction Biology Corp
Procedure: as §1

[10] = target: T10, MAP4K3 (Homo sapiens, UniProt Q8IVH8)
T10 construct: purchased Reaction Biology Corp
Procedure: as §1

[11] = target: T11, CSNK1E (Homo sapiens, UniProt P49674)
T11 construct: purchased Reaction Biology Corp
Procedure: as §1

[12] = target: T12, RET (Homo sapiens, UniProt P07949)
T12 construct: purchased Reaction Biology Corp
Procedure: as §1

[13] = target: T13, ERK1 (Homo sapiens, UniProt P27361)
T13 construct: purchased Reaction Biology Corp
Procedure: as §1

[14] = target: T14, AurkC (Homo sapiens, UniProt Q9UQB9)
T14 construct: purchased Reaction Biology Corp
Procedure: as §1

[15] = target: T15, CDC7/DBF4 (Homo sapiens, UniProt O00311)
T15 construct: purchased Reaction Biology Corp
Procedure: as §1

[16] = target: T16, VRK2 (Homo sapiens, UniProt Q86Y07)
T16 construct: purchased Reaction Biology Corp
Procedure: as §1

[17] = target: T17, PFTK1 (Homo sapiens, UniProt O94921)
T17 construct: purchased Reaction Biology Corp
Procedure: as §1

[18] = target: T18, DDR2 (Homo sapiens, UniProt Q16832)
T18 construct: purchased Reaction Biology Corp
Procedure: as §1

[19] = target: T19, MST2 (Homo sapiens, UniProt Q13188)
T19 construct: purchased Reaction Biology Corp
Procedure: as §1

[20] = target: T20, NEK3 (Homo sapiens, UniProt P51956)
T20 construct: purchased Reaction Biology Corp
Procedure: as §1

[21] = target: T21, PBK/TOPK (Homo sapiens, UniProt Q96KB5)
T21 construct: purchased Reaction Biology Corp
Procedure: as §1

[22] = target: T22, NDR1 (Homo sapiens, UniProt Q15208)
T22 construct: purchased Reaction Biology Corp
Procedure: as §1

[23] = target: T23, PAK3 (Homo sapiens, UniProt O75914)
T23 construct: purchased Reaction Biology Corp
Procedure: as §1

[24] = target: T24, MAPKAPK2 (Homo sapiens, UniProt P49137)
T24 construct: purchased Reaction Biology Corp
Procedure: as §1

[25] = target: T25, PIM3 (Homo sapiens, UniProt Q86V86)
T25 construct: purchased Reaction Biology Corp
Procedure: as §1

[26] = target: T26, CSNK1A1L (Homo sapiens, UniProt Q8N752)
T26 construct: purchased Reaction Biology Corp
Procedure: as §1

[27] = target: T27, PRKG1 (Homo sapiens, UniProt Q13976)
T27 construct: purchased Reaction Biology Corp
Procedure: as §1

[28] = target: T28, INSRR (Homo sapiens, UniProt P14616)
T28 construct: purchased Reaction Biology Corp
Procedure: as §1

[29] = target: T29, MAP4K2 (Homo sapiens, UniProt Q12851)
T29 construct: purchased Reaction Biology Corp
Procedure: as §1

[30] = target: T30, TAK1 (Homo sapiens, UniProt O43318)
T30 construct: purchased Reaction Biology Corp
Procedure: as §1

[31] = target: T31, NEK1 (Homo sapiens, UniProt Q96PY6)
T31 construct: purchased Reaction Biology Corp
Procedure: as §1

[32] = target: T32, WNK3 (Homo sapiens, UniProt Q9BYP7)
T32 construct: purchased Reaction Biology Corp
Procedure: as §1

[33] = target: T33, DRAK1 (Homo sapiens, UniProt Q9UEE5)
T33 construct: purchased Reaction Biology Corp
Procedure: as §1

[34] = target: T34, NEK6 (Homo sapiens, UniProt Q9HC98)
T34 construct: purchased Reaction Biology Corp
Procedure: as §1

[35] = target: T35, DYRK1B (Homo sapiens, UniProt Q9Y463)
T35 construct: purchased Reaction Biology Corp
Procedure: as §1

[36] = target: T36, TYRO3 (Homo sapiens, UniProt Q06418)
T36 construct: purchased Reaction Biology Corp
Procedure: as §1

[37] = target: T37, ERK7 (Homo sapiens, UniProt Q8TD08)
T37 construct: purchased Reaction Biology Corp
Procedure: as §1

[38] = target: T38, SGK1 (Homo sapiens, UniProt O00141)
T38 construct: purchased Reaction Biology Corp
Procedure: as §1

[39] = target: T39, CAMKK2 (Homo sapiens, UniProt Q96RR4)
T39 construct: purchased Reaction Biology Corp
Procedure: as §1

[40] = target: T40, ROCK2 (Homo sapiens, UniProt O75116)
T40 construct: purchased Reaction Biology Corp
Procedure: as §1

[41] = target: T41, PAK2 (Homo sapiens, UniProt Q13177)
T41 construct: purchased Reaction Biology Corp
Procedure: as §1

[42] = target: T42, TAOK2 (Homo sapiens, UniProt Q9UL54)
T42 construct: purchased Reaction Biology Corp
Procedure: as §1

[43] = target: T43, FYN (Homo sapiens, UniProt P06241)
T43 construct: purchased Reaction Biology Corp
Procedure: as §1

[44] = target: T44, MKK7 (Homo sapiens, UniProt O14733)
T44 construct: purchased Reaction Biology Corp
Procedure: as §1

T35 sequence (Q9Y463 whole entry): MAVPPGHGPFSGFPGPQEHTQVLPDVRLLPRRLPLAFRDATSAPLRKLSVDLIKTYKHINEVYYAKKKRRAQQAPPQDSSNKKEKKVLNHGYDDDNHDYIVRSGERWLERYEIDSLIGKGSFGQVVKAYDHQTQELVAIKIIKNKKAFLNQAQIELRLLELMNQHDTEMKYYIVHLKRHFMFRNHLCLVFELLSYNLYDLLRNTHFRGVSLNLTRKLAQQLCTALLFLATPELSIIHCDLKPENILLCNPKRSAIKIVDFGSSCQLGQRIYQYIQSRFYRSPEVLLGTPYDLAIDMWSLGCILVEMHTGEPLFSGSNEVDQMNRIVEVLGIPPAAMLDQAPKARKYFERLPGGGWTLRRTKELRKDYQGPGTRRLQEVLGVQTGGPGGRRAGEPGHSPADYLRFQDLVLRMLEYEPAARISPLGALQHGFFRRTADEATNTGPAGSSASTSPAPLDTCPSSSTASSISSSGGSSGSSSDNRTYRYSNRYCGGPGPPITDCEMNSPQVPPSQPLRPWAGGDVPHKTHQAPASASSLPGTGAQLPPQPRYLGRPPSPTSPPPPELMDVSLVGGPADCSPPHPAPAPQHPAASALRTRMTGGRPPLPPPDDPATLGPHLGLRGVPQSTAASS
T5 sequence (Q96SB4 whole entry): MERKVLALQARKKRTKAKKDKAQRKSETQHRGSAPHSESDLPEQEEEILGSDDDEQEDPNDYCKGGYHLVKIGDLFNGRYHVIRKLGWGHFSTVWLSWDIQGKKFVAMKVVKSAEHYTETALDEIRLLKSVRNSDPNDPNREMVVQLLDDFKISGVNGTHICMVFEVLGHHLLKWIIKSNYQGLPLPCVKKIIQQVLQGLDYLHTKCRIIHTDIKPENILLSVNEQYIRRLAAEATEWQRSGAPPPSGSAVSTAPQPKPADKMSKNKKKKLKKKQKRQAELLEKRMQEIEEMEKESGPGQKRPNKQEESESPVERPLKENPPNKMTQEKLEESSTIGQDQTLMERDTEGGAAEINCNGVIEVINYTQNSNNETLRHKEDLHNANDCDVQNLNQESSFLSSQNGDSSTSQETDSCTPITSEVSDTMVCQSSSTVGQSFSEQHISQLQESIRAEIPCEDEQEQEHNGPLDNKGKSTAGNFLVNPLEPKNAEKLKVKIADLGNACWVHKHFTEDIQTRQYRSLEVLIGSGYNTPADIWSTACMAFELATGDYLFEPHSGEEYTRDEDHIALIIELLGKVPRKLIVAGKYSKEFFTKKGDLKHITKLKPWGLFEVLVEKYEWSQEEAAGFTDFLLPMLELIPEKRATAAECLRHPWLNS
T16 sequence (Q86Y07 whole entry): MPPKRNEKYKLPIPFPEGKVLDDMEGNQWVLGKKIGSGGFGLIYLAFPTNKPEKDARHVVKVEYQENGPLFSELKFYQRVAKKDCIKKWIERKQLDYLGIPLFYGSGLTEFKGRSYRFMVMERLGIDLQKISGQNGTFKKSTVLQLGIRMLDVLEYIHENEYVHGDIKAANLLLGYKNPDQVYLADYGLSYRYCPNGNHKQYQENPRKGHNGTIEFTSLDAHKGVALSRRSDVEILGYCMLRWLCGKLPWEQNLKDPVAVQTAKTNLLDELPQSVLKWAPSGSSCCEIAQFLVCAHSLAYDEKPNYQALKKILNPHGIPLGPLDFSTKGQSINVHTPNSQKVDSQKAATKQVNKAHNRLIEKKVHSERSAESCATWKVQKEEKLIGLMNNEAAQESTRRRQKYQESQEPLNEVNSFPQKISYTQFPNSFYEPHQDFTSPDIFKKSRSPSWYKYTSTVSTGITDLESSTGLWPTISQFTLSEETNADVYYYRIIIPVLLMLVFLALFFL
T34 sequence (Q9HC98 whole entry): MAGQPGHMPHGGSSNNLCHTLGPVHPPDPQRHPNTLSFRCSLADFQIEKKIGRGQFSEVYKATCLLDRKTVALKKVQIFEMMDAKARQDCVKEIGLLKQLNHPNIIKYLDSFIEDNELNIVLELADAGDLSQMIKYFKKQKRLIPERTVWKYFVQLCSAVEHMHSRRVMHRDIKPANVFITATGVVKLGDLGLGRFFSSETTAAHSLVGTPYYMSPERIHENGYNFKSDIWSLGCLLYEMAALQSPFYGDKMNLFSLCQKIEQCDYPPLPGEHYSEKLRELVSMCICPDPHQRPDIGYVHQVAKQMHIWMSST
T22 sequence (Q15208 whole entry): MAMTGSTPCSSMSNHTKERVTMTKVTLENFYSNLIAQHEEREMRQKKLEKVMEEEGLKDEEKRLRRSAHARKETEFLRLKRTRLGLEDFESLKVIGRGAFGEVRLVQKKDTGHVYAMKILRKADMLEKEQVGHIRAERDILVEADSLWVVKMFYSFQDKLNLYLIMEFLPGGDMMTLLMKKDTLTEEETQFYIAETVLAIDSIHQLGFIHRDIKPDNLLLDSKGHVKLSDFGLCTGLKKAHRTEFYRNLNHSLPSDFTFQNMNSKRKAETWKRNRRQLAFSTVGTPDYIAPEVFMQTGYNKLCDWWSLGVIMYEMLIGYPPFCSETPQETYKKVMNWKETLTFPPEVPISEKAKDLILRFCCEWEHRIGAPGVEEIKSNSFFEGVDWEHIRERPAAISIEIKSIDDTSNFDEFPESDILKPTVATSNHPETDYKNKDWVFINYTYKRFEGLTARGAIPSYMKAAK
T29 sequence (Q12851 whole entry): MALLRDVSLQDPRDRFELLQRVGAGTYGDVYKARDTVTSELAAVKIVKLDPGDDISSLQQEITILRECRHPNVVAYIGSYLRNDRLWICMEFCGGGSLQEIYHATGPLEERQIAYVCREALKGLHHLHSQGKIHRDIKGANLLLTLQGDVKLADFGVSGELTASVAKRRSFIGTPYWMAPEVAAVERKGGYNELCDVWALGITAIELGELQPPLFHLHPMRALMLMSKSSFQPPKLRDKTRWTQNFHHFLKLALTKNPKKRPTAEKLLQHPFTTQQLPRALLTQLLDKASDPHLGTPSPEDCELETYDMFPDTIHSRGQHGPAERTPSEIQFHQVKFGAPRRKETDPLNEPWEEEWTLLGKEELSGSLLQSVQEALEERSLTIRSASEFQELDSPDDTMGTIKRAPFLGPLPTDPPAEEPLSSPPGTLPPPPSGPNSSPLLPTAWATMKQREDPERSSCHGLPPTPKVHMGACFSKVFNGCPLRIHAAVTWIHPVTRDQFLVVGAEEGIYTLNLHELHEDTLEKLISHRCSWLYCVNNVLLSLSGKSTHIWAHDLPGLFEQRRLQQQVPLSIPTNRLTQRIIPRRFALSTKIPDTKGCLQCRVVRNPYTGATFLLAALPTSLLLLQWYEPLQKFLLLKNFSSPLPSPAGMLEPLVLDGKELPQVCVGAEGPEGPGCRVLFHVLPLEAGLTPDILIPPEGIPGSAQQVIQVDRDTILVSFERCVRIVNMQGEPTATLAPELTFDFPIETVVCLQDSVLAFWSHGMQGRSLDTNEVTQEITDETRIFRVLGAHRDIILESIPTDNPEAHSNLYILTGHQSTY
T36 sequence (Q06418 41-890): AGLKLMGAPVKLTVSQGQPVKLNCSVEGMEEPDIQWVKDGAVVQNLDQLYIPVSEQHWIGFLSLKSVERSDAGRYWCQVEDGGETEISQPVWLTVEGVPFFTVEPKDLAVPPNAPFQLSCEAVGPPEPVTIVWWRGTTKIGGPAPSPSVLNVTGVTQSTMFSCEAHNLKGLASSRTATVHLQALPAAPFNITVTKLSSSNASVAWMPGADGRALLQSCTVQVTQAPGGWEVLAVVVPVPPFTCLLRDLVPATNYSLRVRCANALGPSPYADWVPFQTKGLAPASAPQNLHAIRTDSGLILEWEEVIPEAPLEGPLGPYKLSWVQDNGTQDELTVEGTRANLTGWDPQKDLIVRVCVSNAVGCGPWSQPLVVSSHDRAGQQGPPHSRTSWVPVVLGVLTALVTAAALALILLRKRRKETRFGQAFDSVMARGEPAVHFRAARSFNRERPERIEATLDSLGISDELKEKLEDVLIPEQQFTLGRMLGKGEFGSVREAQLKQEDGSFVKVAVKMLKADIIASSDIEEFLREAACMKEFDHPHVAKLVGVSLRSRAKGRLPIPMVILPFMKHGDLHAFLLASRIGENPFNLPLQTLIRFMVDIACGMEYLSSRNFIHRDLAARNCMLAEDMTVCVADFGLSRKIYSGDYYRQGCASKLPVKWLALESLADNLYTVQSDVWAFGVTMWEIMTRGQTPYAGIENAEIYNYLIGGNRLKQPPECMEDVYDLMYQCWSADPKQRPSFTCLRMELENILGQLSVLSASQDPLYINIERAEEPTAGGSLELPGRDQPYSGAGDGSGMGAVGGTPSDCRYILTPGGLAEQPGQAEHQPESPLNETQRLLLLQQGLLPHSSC
T43 sequence (P06241 whole entry): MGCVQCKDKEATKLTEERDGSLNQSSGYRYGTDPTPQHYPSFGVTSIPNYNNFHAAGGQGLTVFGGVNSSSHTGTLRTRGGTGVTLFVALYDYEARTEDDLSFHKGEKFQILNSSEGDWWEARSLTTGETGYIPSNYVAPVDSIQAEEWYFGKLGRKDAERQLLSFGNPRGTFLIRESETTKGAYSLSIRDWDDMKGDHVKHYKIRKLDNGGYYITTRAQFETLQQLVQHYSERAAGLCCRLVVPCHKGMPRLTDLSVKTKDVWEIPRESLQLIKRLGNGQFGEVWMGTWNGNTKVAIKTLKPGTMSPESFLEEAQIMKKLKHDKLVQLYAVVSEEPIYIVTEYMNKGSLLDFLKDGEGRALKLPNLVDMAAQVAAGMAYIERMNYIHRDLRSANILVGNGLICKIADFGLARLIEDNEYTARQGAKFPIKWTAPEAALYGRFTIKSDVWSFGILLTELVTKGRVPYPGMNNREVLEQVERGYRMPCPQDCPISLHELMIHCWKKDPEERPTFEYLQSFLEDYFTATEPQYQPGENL

Work on CCn1cnc2c(NCc3ccc(-c4ccccn4)nc3)nc(-c3ccc(N)nc3)nc21 [Compound 30d, N-([2,2′-Bipyridin]-5-ylmethyl)-2-(6-aminopyridin-3-yl)-9-ethyl-9H-purin-6-amine] yielded a remaining activity at 10 µM [1] of 13.6%, a remaining activity at 10 µM [2] of 89.3% and a remaining activity at 10 µM [3] of 108%. It also gave a remaining activity at 10 µM [4] of 118%, a remaining activity at 10 µM [5] of 54.3% and a remaining activity at 10 µM [6] of 69%. The remaining activity at 10 µM [7] was 23.1%, the remaining activity at 10 µM [8] was 17.7% and the remaining activity at 10 µM [9] was 22.3%. For the same compound, the remaining activity at 10 µM [10] was 49.6%, the remaining activity at 10 µM [11] was 22.9% and the remaining activity at 10 µM [12] was 79.4%. For the same compound, the remaining activity at 10 µM [13] was 9.4%, the remaining activity at 10 µM [14] was 25.5% and the remaining activity at 10 µM [15] was 98.2%. For the same compound, the remaining activity at 10 µM [16] was 96.6%, the remaining activity at 10 µM [17] was 14% and the remaining activity at 10 µM [18] was 87.2%. For the same compound, the remaining activity at 10 µM [19] was 53.5%, the remaining activity at 10 µM [20] was 86.6% and the remaining activity at 10 µM [21] was 93.5%. For the same compound, the remaining activity at 10 µM [22] was 28.3%, the remaining activity at 10 µM [23] was 29.1% and the remaining activity at 10 µM [24] was 102%. It also gave a remaining activity at 10 µM [25] of 86.7%, a remaining activity at 10 µM [26] of 53.1% and a remaining activity at 10 µM [27] of 108%. It also gave a remaining activity at 10 µM [28] of 31.1%, a remaining activity at 10 µM [29] of 58.4% and a remaining activity at 10 µM [30] of 98.2%. For the same compound, the remaining activity at 10 µM [31] was 92.3%, the remaining activity at 10 µM [32] was 74.5% and the remaining activity at 10 µM [33] was 79.3%. For the same compound, the remaining activity at 10 µM [34] was 92.1%, the inhibition at 10 µM [35] was greater than 95% and the remaining activity at 10 µM [35] was 3.2%. It also gave a remaining activity at 10 µM [36] of 22.4%, a remaining activity at 10 µM [37] of 13.5% and a remaining activity at 10 µM [38] of 84.9%. It also gave a remaining activity at 10 µM [39] of 10.6%, a remaining activity at 10 µM [40] of 92.3% and a remaining activity at 10 µM [41] of 46.7%. The remaining activity at 10 µM [42] was 23.8%, the remaining activity at 10 µM [43] was 81% and the remaining activity at 10 µM [44] was 96.3%.
